A value given as a limit tells only on which side of the number the result lay.

Holding throughout (assay type): cell-based
Test [1] deals with MCF7. Description: Antiproliferative assay, methylene blue staining, MCF7. As to conditions: MCF7 human tumor cell line, 4 days incubation. As for the experimental part: (§1) Human tumor cell lines, e.g. the 40-O-(2-hydroxyethyl) rapamycin-sensitive MCF7, BT549 or LNCap lines (IC50 in sub nM range) versus the comparative 40-O-(2-hydroxyethyl) rapamycin-resistant PC3M line (IC50 in the >100 nM range), as well as cell lines with moderate rapamcyin-sensitivity (IC50 in the 1 nM-100 nM range) such as DU145, HCC1937 and MDA-MB231, are added to 96-well plates (500 to 5000 cells/well in 100 μl medium) and incubated for 24 hr. Subsequently, a dilution series of an mTOR inhibitor, e.g. a compound of formula A, e.g. 40-O-(2-hydroxyethyl) rapamycin is made in separate wells and the dilutions are added to the wells. The cells are then re-incubated for 4 days. Methylene blue staining is performed on day 5 and the amount of bound dye (proportional to the number of surviving cells that bind the dye) determined. IC50s are subsequently determined using Softmax 1.2.0 software.

Test [2] deals with BT549. The experiment in a line: Antiproliferative assay, methylene blue staining, BT549. To be noted: BT549 human tumor cell line, 4 days incubation. As for the experimental part:
as §1

For test [3], the system named is LNCap. Description: Antiproliferative assay, methylene blue staining, LNCap. As to conditions: LNCap human tumor cell line, 4 days incubation. As for the experimental part: as §1
Test [4] has as its system PC3M. The experiment in a line: Antiproliferative assay, methylene blue staining, PC3M. To be noted: PC3M human tumor cell line, 4 days incubation. The procedure: as §1

As for `CO[C@H]1C[C@@H]2CC[C@@H](C)[C@@](O)(O2)C(=O)C(=O)N2CCCC[C@H]2C(=O)O[C@H]([C@H](C)C[C@@H]2CC[C@@H](OCCO)[C@H](OC)C2)CC(=O)[C@H](C)/C=C(\C)[C@@H](O)[C@@H](OC)C(=O)[C@H](C)C[C@H](C)/C=C/C=C/C=C/1C` [40-O-(2-hydroxyethyl) rapamycin], the 50% inhibitory concentration (IC50) (usually the concentration needed to halve the response being measured) in test [1] was “sub nM”; in test [2], “sub nM”; in test [3] it was “sub nM”; in test [4], greater than 0.1 µM.

Values taken from patent publication US20070167478A1, “Biomarkers for sensitivity of proliferative diseases to mtor inhibitors” (priority 2003, published 2007).
